In publication PMC11423184 (Advanced Science, 2024):

Target: T1, SWELL1 channel (VRAC; SWELL1 = LRRC8A) (Mus musculus, UniProt Q80WG5)
T1 construct: endogenous VRAC in mouse primary astrocytes and hippocampal CA1 neurons, full length; neuronal current absent in NEX-cKO
T1 sequence (Q80WG5 1-810): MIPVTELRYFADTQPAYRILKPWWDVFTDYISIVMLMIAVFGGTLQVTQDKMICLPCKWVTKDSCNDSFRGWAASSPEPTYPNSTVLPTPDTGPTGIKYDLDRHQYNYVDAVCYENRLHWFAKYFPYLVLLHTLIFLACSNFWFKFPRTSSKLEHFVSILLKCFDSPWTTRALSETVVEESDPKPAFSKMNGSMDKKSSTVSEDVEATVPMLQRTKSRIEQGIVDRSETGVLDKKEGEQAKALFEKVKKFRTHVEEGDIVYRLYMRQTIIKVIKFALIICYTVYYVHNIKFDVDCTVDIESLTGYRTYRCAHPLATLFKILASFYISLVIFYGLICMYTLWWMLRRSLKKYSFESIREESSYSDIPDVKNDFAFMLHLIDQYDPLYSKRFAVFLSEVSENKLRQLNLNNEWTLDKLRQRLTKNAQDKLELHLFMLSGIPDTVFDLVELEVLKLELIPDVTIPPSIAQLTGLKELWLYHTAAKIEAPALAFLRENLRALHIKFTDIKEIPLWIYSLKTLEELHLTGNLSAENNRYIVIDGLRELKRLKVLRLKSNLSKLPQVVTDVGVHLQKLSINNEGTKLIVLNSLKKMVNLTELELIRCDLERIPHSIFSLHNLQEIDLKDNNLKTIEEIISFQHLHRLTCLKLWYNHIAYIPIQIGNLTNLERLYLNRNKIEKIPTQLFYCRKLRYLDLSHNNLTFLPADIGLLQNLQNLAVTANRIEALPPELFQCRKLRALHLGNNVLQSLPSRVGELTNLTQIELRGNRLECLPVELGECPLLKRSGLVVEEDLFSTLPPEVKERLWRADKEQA
Experiment: whole-cell patch clamp, primary astrocytes
Format: cell-based
Details: hypotonicity-induced SWELL1 currents; concentration not given

Q: `CC(=O)CC(c1ccccc1)c1c(O)c2ccccc2oc1=O` (stereo not shown) [Warfarin] was tested. Which “whole-cell patch clamp, primary astrocytes” value did it give?
A: Warfarin, another anticoagulant of the same family, failed to inhibit hypotonicity‐induced SWELL1 currents
